# Results from PMC10492782, “Exploiting the aggregation propensity of beta-lactamases to design inhibitors that induce enzyme misfolding” (Nature Communications, 2023).
# What was measured:
# [1] = system: human erythrocytes; test: Hemolysis; conditions: 2 h at 37 °C, normalized to 1% triton
# Method: Fig. 7 Evaluation of in vivo use of peptides that induce the aggregation of TEM beta-lactamase. A Lysis of human erythrocytes (hemolysis) was assessed in the presence of the indicated concentrations of TEM3.2 for 2 h at 37 °C, and normalized to the value obtained with 1% of the detergent triton. […] B Cell viability using the CellTiter Blue assay of HeLa cells treated for 24 h with the indicated concentrations TEM 3.2 at 37 °C. […] DAPI (4’,6-diamidino-2-phenylindole) is blue, while CellMask is red. D Experimental workflow of the in vivo model used in this study. E–G Bacterial load of indicated organs of female C57BL/6JAX mice with a urinary tract infection with E. coli strain UZ_TEM104, treated with 30 mg/kg penicillin (oral) as well 10 mg/kg tazobactam (oral) or 10 mg/kg TEM3.2 via the indicated treatment route. IV intravenous, IP intraperitoneal, SC subcutaneously. The data shown is from a single experiment with 12 animals for each group. The result for each animal is shown as a dot. […] The statistically significant differences were determined using ANOVA, followed by Dunnett’s multiple comparison test. […] Source data are provided as a Source Data file.
# [2] = molecular target: T1, recombinantly purified TEM-1 (Escherichia coli, UniProt P62593); type: biochemical, E. coli; conditions: pFTAA fluorescence kinetics
# T1 construct: His-tag (N); TEV cleavage site (N); made in house; host or cells: E. coli BL21 (DE3)
# Method: (§1) Fig. 4 Aggregation kinetics of TEM and SHV proteins and peptides. A Measurements of the hydrodynamic radius by Dynamic Light Scattering of 50 μM TEM3.2 in buffer alone, or in the presence of LPS or polyphosphate (PolyP). […] C Transmission Electron Micrograph of 50 μM TEM 3.2 incubated for 24 h in the same buffer as A with polyP, negatively stained with 2% (w/v) uranyl acetate. A single representative image is shown. […] Three replicates are shown for each condition. E Aggregation kinetics using pFTAA fluorescence emission of recombinantly purified TEM-1, in the presence of vehicle, or TEM 3.2 peptin, as well as peptin-only control. F Similar as in E, but using an off-target Pept-In, based on an APR sequence of beta-galactosidase. G Similar to E, but now using a previously published off-target Pept-In, based on an APR of HcaB. The plots are the results of a single experiment, all replicates are shown. Source data are provided as a Source Data file.
# [3] = system: HeLa cells; test: CellTiter Blue cell viability; conditions: 24 h, 37 °C, DMEM without serum
# Method: Fig. 7 Evaluation of in vivo use of peptides that induce the aggregation of TEM beta-lactamase. A Lysis of human erythrocytes (hemolysis) was assessed in the presence of the indicated concentrations of TEM3.2 for 2 h at 37 °C, and normalized to the value obtained with 1% of the detergent triton. […] B Cell viability using the CellTiter Blue assay of HeLa cells treated for 24 h with the indicated concentrations TEM 3.2 at 37 °C. […] DAPI (4’,6-diamidino-2-phenylindole) is blue, while CellMask is red. D Experimental workflow of the in vivo model used in this study. E–G Bacterial load of indicated organs of female C57BL/6JAX mice with a urinary tract infection with E. coli strain UZ_TEM104, treated with 30 mg/kg penicillin (oral) as well 10 mg/kg tazobactam (oral) or 10 mg/kg TEM3.2 via the indicated treatment route. IV intravenous, IP intraperitoneal, SC subcutaneously. The data shown is from a single experiment with 12 animals for each group. The result for each animal is shown as a dot. […] The statistically significant differences were determined using ANOVA, followed by Dunnett’s multiple comparison test. […]
# The Cell Titer Blue assay was performed to evaluate the cell viability according to the instructions of the manufacturer (Promega, USA). […] The fluorescence was measured at 590 nm by exciting at 560 nm with a ClarioStar plate reader (BMG Labtech, Germany).
# [4] = system: E. coli UZ_TEM104; test: FACS with pFTAA (aggregation) and propidium iodide (cell death); type: cell-based, Escherichia coli
# Method: Fig. 6 Uptake and inclusion body formation upon peptide treatment. Fluorescence-activated cell-sorting (FACS) (A) of E. coli strain UZ_TEM104 mixed 50–50% with the same strain after heat-inactivation. The cells were stained with pFTAA to monitor aggregation and propidium iodide (PI) to monitor cell permeabilization associated with cell death. 10^6 cells were analyzed for the plot. […] B Similar FACS analysis as in A, but with a sample of live bacteria only. […] Note: the horizontal and vertical lines correspond to the gatings used to obtain the quantifications shown in the corners of each image.
# Treated bacteria were washed with PBS buffer two times. One microliter of PI (Invitrogen) was added to the bacteria and incubated for 5 min. The bacteria were counted by FACS to reach 40000 events. To correlate the activity of the peptides with cell death, the fluorescence intensity was measured in two channels using the Gallios^TM Flow Cytometer (Beckman Coulter, USA), PI: excitation 536 nm and emission 617 nm, FITC: excitation 490 nm and emission 525 nm. Heated bacteria at 90 °C for 10 min were used as PI-positive control.
# The bacterial cultures were washed with PBS, and the number of bacteria was adjusted to 10^8–10^9 cells/mL. […] Then, cells were treated with LCO dyes (pFTAA; Amytacker^TM680 or Amytacker^TM545: final concentration of 0.5 µM; Ebba Biotech, Sweden) for at least 90 min. The absorption, emission, and excitation spectra for each dye were measured based on the standard Ebbabiotec advice (ebbabiotech.com).
# [5] = system: SHV beta-lactamase in E. coli SHV-11; test: Western blot of inclusion body fraction; type: cell-based, Escherichia coli; conditions: 12 μM peptide in PBS, 120 min
# Text: (§2) Fig. 5 Induction of aggregation in cells. […] A single representative image is shown. […] A single representative image is shown. C SIM and brightfield images as in A, but for E. coli ATCC strain. […] A single representative image is shown. […] A single representative blot is shown. […] The corrected P-values were 0.6091, 0.0029, 0.0027, <0.0001, and 0.9992, from left to right. […] Statistics exactly as in E, but from 3 independent experiments. The corrected P-values were 0.8753, 0.9796, 0.0001, 0.0003, and 0.0003, from left to right. Source data are provided as a Source Data file.
# (§3) Overnight cultures of bacteria were centrifuged for 30 min at 4000 × g and cells were washed with physiological water (NaCl 0.9%). Bacterial cells were treated by peptide at the appropriate concentration for at least 2 h at 37 C. The bacterial pellets were washed with 10 mL buffer A (50 mM HEPES, pH 7.5, 300 mM NaCl, 5 mM β-mercaptoethanol, 1.0 mM EDTA) and centrifuged at 4 °C for 30 min at 4000 × g. […]
# [6] = molecular target: T2, TEM beta-lactamase in E. coli strain UZ_TEM104 (Escherichia coli, UniProt P62593); test: Western blot of inclusion body fraction; type: cell-based; conditions: 12 μM peptide in PBS, 120 min
# T2 construct: endogenous in cells
# Text: as §2, §3
# [7] = Hematologic analysis after repeated dosing; conditions: daily IV injections, 5 mg/kg
# [8] = system: E. coli K12 MG1655 overexpressing GFP; test: Structured illumination microscopy of strains expressing GFP or FP fusions; type: cell-based, Escherichia coli; conditions: strains stably expressing GFP or proteins fused to FPs treated with TEM3.2
# Text: as §2
# Bacteria were fixed by adding 2.5% paraformaldehyde and 0.04 % glutaraldehyde (final concentrations) to the culture media, followed by incubation at room temperature for 15 min and 30 min on ice. Bacteria were then washed in PBS and resuspended in GTE buffer (50 mM glucose, 25 mM Tris, and 10 mM EDTA, pH 8.0). Directly preceding microscopic analysis, cells were transferred to a glass slide and covered with a coverslip. Imaging was performed using a Zeiss Elyra S.1 system in the VIB BioImaging Core at KU Leuven.
# [9] = pFTAA fluorescence of peptide aggregates; type: physicochemical; conditions: 50 μM peptide, PolyP condition
# Method: as §1
# T2 sequence (P62593 24-286 limits assumed): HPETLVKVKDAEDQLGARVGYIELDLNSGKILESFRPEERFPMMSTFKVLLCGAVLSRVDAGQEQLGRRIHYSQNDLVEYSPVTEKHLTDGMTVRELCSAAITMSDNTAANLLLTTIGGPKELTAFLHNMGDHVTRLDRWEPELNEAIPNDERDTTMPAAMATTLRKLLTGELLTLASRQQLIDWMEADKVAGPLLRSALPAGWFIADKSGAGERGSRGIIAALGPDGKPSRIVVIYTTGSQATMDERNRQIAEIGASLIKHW
# T1 sequence (P62593 24-286 limits assumed): as above
substance,measurement,setting,value
Ac-RLTAFLHNRRPRLTAFLRQRR-NH2 [TEM3.2],hemolysis (in words),[1],not hemolytic to human erythrocytes
same,induction of aggregation of recombinantly purified TEM beta-lactamase (in words),[2],potent inducer of the aggregation of the TEM beta-lactamase
same,"cytotoxicity, Cell Titer Blue (in words)",[3],not cytotoxic
same,cells with non-lethal aggregation (pFTAA shift),"[4]; 50 μg/mL TEM3.2, 4 h in PBS",> 99%
same,shift in pFTAA and PI channels (in words),"[4]; 4 h, penicillin G 400 μg/mL and/or TEM3.2 50 μg/mL",a shift of the bacterial population only in the pFTAA channel
same,"SHV enzyme in inclusion body fraction, western blot (in words)",[5],accumulates in IBs
same,"TEM protein in inclusion body fraction, western blot (in words)",[6],clear enrichment of the TEM protein in IBs
same,hematologic analysis (in words),[7],no major discrepancies to vehicle-treated controls
same,induced aggregation of unrelated fluorescent proteins (in words),[8],did not observe a similar induced aggregation of the fluorescent proteins
same,pFTAA staining of fibrils (in words),[9],stain positive for pentameric formyl thiophene acetic acid (pFTAA)
